The test system of data set [1] is acetic acid-depressed locomotion in mice. As to the kind of experiment: Acetic acid-depressed locomotor activity. The format is in vivo, ICR mice. To be noted: s.c. pretreatment, 0.6% acetic acid.
The subject of data set [2] is acetic acid-depressed nesting in mice. The data set is described as follows: Acetic acid-depressed nesting. To be noted: 60 min nesting period. The class given is in vivo, ICR mice.
Another data set concerns the target α1β3γ2L GABAA receptor (Rattus norvegicus, UniProt P18508+P62813, INS375LLRMFSFK). The class given is cell-based. To be noted: for peak response (potentiation of the response to GABA): α1β3γ2L, percentage of the response to GABA alone.
Data set [3] addresses α5-containing GABAA receptors (with β3, γ2L) (Rattus norvegicus, UniProt P18508+P19969, INS375LLRMFSFK). The class given is cell-based. The note with it: 0.1 μM modulator, 0.3 μM GABA.
The test system of data set [4] is lactic acid-depressed locomotion in mice. The data set is described as follows: Lactic acid-depressed locomotor activity. Also noted: species or system ICR mice. The note with it: mouse, in vivo.
Data set [5] relates to 0.6% acetic acid-induced writhing in mice. The data set is described as follows: 0.6% acetic acid-induced writhing. The class given is in vivo, ICR mice. The note with it: s.c. pretreatment, 25 min observation.
The next data set concerns the target α3β3γ2L GABAA receptor (Rattus norvegicus, UniProt P18508+P20236, INS375LLRMFSFK). The class given is cell-based. To be noted: for peak response (potentiation of the response to GABA): α3β3γ2L, percentage of the response to GABA alone.
The next data set addresses α2β3γ2L GABAA receptor (UniProt P18508+P47869, INS375LLRMFSFK). The class given is cell-based, human. The note with it: for peak response (potentiation of the response to GABA): α2β3γ2L, percentage of the response to GABA alone.
In data set [6] the test system is 0.32% lactic acid-induced writhing in mice. The format is in vivo, ICR mice. The note with it: s.c. pretreatment, 25 min observation.
The next data set has as its system mice. As to the kind of experiment: Pilot study of a larger dose. The class given is in vivo. To be noted: 32 mg/kg.
In data set [7] the target is α4-containing GABAA receptors (with β3, γ2L) (Rattus norvegicus, UniProt P18508+P28471, INS375LLRMFSFK). The format is cell-based. To be noted: 1 μM modulator, 0.3 μM GABA.
Data set [8] has as its target α6-containing GABAA receptors (with β3, γ2L) (Rattus norvegicus, UniProt P18508+P30191, INS375LLRMFSFK). The format is cell-based. To be noted: 1 μM modulator, 0.1 μM GABA.
Data set [9] has as its system rat models of inflammatory and neuropathic pain. The note with it: cited from earlier work.
The subject of a further data set is formalin test. The note with it: only partially effective; cited from earlier work.
Data set [10] deals with spontaneous locomotor activity in naïve mice. The data set is described as follows: Baseline locomotor activity without acid. The format is in vivo, ICR mice. To be noted: doses used for the pain studies.

Structures are written as SMILES. Entries after “also recorded” stand apart in the source; their conditions may differ.

By EC50 is commonly meant the concentration that produces a half-maximal response. A higher EC50 goes with a less potent agent.

With `C#Cc1ccc2c(c1)C(c1ccccc1F)=NCc1c(-c3cnco3)ncn1-2` [KRM-II-18B, 5-(8-ethynyl-6-(2-fluorophenyl)-4H-benzo[f]imidazo[1,5-a][1,4]diazepin-3-yl) oxazole], the “effect on locomotor activity of acetic acid-treated mice (in words)” value in [1] is on record as “failed to restore”. For the same compound, the “effect on the decrease in cleared zones by acetic acid (nesting, in words)” value in data set [2] is “failed to significantly attenuate”. The EC50 at α1β3γ2L GABAA receptor is 739 ± 252 nM; at α3β3γ2L GABAA receptor it was 169 ± 39.8 nM; at α2β3γ2L GABAA receptor, 261 ± 116 nM. On α1β3γ2L GABAA receptor (in words), the “selectivity among the three subtypes (α1, α2, α3)” value is given as “no significant selectivity”. Moreover, the “peak response (potentiation of the response to GABA)” value on α1β3γ2L GABAA receptor is 410.6 ± 26.3%; on α3β3γ2L GABAA receptor, 383.0 ± 33.2%; on α2β3γ2L GABAA receptor it was 320.0 ± 14.3%. For the same compound, in data set [3], the “modulation of GABA response at α5-containing receptors (in words)” value is reported as “significant efficacy”. Further, the “effect on locomotor activity of lactic acid-treated mice (in words)” value in data set [4] was “failed to restore”. The “effect on 0.6% acetic acid-induced writhing (in words)” value in [5] was “dose-dependently decreased”. Besides, the “effect on […] lactic acid-induced writhing (in words)” value in [6] is on record as “decreased”. Also, the “sedation at a larger dose” value in the data set with mice is listed as “marked sedation”.

For `C#Cc1ccc2c(c1)C(c1ccccn1)=NCc1c(-c3cnco3)ncn1-2` [KRM-II-81, 5-(8-ethynyl-6-(pyridin-2-yl)-4H-benzo[f]imidazo[1,5-a][1,4]diazepin-3-yl) oxazole], the “effect on locomotor activity of acetic acid-treated mice (in words)” value in data set [1] was “failed to restore”. Also, the “modulation of GABA response at α4-containing receptors (in words)” value in [7] is listed as “negligible efficacy”. Moreover, the “effect on the decrease in cleared zones by acetic acid (nesting, in words)” value in [2] is listed as “failed to significantly attenuate”. For the same compound, the values for the EC50 at α1β3γ2L GABAA receptor, on α3β3γ2L GABAA receptor and at α2β3γ2L GABAA receptor were 1730 ± 690 nM, 60.9 ± 11.6 nM and 102 ± 28.5 nM, respectively. In addition, the “peak response (potentiation of the response to GABA)” value was determined as 316.9 ± 38.6% at α1β3γ2L GABAA receptor, 352.2 ± 38.0% at α3β3γ2L GABAA receptor and 350.1 ± 21.5% at α2β3γ2L GABAA receptor. Also, the “modulation of GABA response at α5-containing receptors (in words)” value in data set [3] was “much less sensitive; also recorded: negligible efficacy”. Besides, in data set [4], the “effect on locomotor activity of lactic acid-treated mice (in words)” value is “failed to restore”. For the same compound, the “effect on 0.6% acetic acid-induced writhing (in words)” value in data set [5] is recorded as “dose-dependently decreased”. Moreover, the “modulation of GABA response at α6-containing receptors (in words)” value in [8] is given as “negligible efficacy”. Besides, the “selectivity on α3 subtype over α1 subtype GABAA receptors” value on α3β3γ2L GABAA receptor (from EC50 values) is recorded as 28 fold. Also, on α2β3γ2L GABAA receptor (from EC50 values), the “selectivity on α2 subtype over α1 subtype GABAA receptors” value is listed as 17 fold. Besides, in data set [6], the “effect on […] lactic acid-induced writhing (in words)” value is reported as “decreased”. Further, the “sedation at a larger dose” value in the data set with mice was “marked sedation”.

`CC(C)(O)c1ccc2c(c1)ncn2-c1cccc(-c2ccccc2C#N)c1` [NS11394, 3′-[5-(1-hydroxy-1-methyl-ethyl)-benzoimidazol-1-yl]-biphenyl-2-carbonitrile]: the “antinociceptive effects in rat models of inflammatory and neuropathic pain” value in data set [9] is reported as “significant antinociceptive effects”. Also, the “sedation at the antinociceptive doses” value in [9] (rat, same doses) is reported as “does not produce sedation”. Further, the “reduction in the formalin test” value in the data set on formalin test is reported as 33%.

`CC(=O)Nc1ccc(O)cc1` [acetaminophen, reference compound]: the “effect on locomotor activity of acetic acid-treated mice (in words)” value in [1] is listed as “dose-dependently increased”. Also, in data set [4], the “effect on locomotor activity of lactic acid-treated mice (in words)” value is “dose-dependently increased”. Besides, the “effect on locomotor / spontaneous activity without acid” value in data set [10] is given as “did not significantly change”.

The record behind these values is publication PMC5686453 (ACS chemical neuroscience, 2017).
